Measured values as given in patent US8492377B2, “MTKI quinazoline derivatives” (Janssen Pharmaceutica NV, priority 2006, dated 2013).
Counter-ions that a name gives are not always drawn.

Key:
human Src = human Src (Homo sapiens, UniProt P12931); experiment: C1: c-Src filter assay; assay type: biochemical; settings: 5 ng human Src, 1.0 μM unlabeled ATP, poly(Glu,Tyr) 4:1, 25° C., 10 minutes; read-out: C1: c-SRC filter pIC50 (converted)
Description: The in vitro inhibition of c-Src kinase was assessed using the glass-fiber filter technology as described by Davies, S. P. et al., Biochem J. (2000), 351; p. 95-105.
In the glass-fiber filter technology the activity of the kinase is measured using an appropriate substrate that is incubated with the aforementioned kinase protein in the presence of (^33P) radiolabeled ATP. (^33P) Phosporylation of the substrate is subsequently measured as radioactivity bound on a glassfiber-filter.
In an alternative filter based assay the final kinase activity was assessed using a phosphostorage screen instead of scintilation counting.
In this assay the Src kinase reaction is performed at 25° C. for 10 minutes in a 96-well microtiterplate. The 25 μl reaction volume contains 8 mM MOPS pH 7.0, 20 mM Mg-acetate, 0.2 mM Na2EDTA, 0.5 mM MnCl2, 1.0 μM unlabeled ATP, 0.2 μCi AT^33P, 20 ng poly(Glu,Tyr) 4:1 and 5 ng human Src.
The reaction is stopped by adding 5 μl of a 3% phosphoric acid solution. 5 μl of the reaction mixture is then spotted onto a Filtermat A filter (Wallac) and washed 3 times for 5 min. in 75 mM phosphoric acid and 1 time for 5 min. in methanol prior to drying and quantification on the Typhoon (Amersham) using a phosphostorage screen.

human Fyn = human Fyn (Homo sapiens, UniProt P06241); experiment: C2: Fyn kinase assay; assay type: biochemical; settings: 5 ng human Fyn, 1.0 μM unlabeled ATP, poly(Glu,Tyr) 4:1, 25° C., 10 minutes; for IC50: read-out: C2: Fyn kinase pIC50 (converted)
Chain of human Fyn (P06241 whole entry): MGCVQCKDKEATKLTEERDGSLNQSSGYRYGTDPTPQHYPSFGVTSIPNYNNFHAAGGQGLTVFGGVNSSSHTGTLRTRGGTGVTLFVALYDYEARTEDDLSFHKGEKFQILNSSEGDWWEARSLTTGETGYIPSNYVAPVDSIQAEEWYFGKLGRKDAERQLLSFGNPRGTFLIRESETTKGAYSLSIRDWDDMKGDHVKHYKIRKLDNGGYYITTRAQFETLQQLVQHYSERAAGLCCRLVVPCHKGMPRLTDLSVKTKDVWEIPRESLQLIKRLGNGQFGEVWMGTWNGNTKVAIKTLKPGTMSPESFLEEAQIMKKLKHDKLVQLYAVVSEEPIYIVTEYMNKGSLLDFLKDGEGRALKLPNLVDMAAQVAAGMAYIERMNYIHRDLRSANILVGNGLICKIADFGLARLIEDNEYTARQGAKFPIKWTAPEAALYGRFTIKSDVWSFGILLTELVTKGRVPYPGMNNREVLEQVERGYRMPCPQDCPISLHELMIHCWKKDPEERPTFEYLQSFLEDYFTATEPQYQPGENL
Description: In this assay the Fyn kinase reaction is performed at 25° C. for 10 minutes in a 96-well microtiterplate. The 25 μl reaction volume contains 8 mM MOPS pH 7.0, 20 mM Mg-acetate, 0.2 mM Na2EDTA, 0.5 mM MnCl2, 1.0 μM unlabeled ATP, 0.2 μCi AT^33P, 20 ng poly(Glu,Tyr) 4:1 and 5 ng human Fyn.
The reaction is stopped by adding 5 μl of a 3% phosphoric acid solution. 5 μl of the reaction mixture is then spotted onto a Filtermat A filter (Wallac) and washed 3 times for 5 min. in 75 mM phosphoric acid and 1 time for 5 min. in methanol prior to drying and scintillation counting.

Chain of human Src (P12931 whole entry): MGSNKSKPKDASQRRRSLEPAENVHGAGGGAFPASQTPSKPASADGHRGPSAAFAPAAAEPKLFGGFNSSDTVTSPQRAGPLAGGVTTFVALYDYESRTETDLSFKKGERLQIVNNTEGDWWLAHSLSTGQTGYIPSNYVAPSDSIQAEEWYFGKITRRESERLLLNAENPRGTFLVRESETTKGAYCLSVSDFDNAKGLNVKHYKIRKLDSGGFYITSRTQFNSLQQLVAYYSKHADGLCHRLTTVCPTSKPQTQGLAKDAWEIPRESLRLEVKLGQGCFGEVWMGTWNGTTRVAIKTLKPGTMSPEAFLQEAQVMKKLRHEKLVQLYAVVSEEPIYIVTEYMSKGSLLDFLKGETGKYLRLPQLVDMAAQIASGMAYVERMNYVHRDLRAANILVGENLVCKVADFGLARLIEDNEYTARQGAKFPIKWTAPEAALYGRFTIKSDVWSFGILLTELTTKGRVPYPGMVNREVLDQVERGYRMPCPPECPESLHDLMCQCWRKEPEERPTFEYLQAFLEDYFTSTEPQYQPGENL

## CN1CCCCCOc2cc3c(ncnc3cc2OCCCNC(=O)OC(C)(C)C)Nc2c(ccc3c2OCO3)C1 [Compound A56]
Human Src
  IC50: > 10000 nM
Human Fyn
  IC50: < 1000 nM
other
  melting point: 210 to 213 °C

## C[C@H]1C(=O)NCCCOc2cc3c(ncnc3cc2O)Nc2c(ccc3c2OCO3)CN1C [Compound A40]
Human Src
  IC50: > 10000 nM
Human Fyn
  IC50: > 1000 nM

## COc1cc2ncnc3c2cc1OCCCNC(=O)[C@H](C)N(C)Cc1ccc2c(c1N3)OCO2 [Compound A38]
Human Src
  IC50: 3310 nM
Human Fyn
  IC50: 245 nM

## CN1CCN(CCCOc2cc3ncnc4c3cc2OCCCCCNCc2cc(Br)c3c(c2N4)OCO3)CC1 (as salt: HCl) [Compound B28]
other
  melting point: 244 °C

## Brc1cc2c(c3c1OCO3)Nc1ncnc3cc(OCCCN4CCCC4)c(cc13)OCCCCCNC2 (as salt: HCl) [Compound B27]
other
  melting point: 224 °C

## CN1CCCCCOc2cc3c(ncnc3cc2OCCCNCCO)Nc2c(cc(Br)c3c2OCO3)C1 [Compound B71]
other
  melting point: 241 °C

## COc1cc2ncnc3c2cc1OCCCN(C)CCN(C)Cc1ccc2c(c1N3)OCO2 [Compound B10]
Human Src
  IC50: 1910 nM
Human Fyn
  IC50: 21.9 nM

## CN1CCCCCOc2cc3c(ncnc3cc2OCCCN2CCCCC2)Nc2c(ccc3c2OCO3)C1 [Compound B19]
Human Src
  IC50: 617 nM
Human Fyn
  IC50: 1.23 nM

## CN1CCNCCCOc2cc3c(ncnc3cc2OCCCN2CCOCC2)Nc2c(ccc3c2OCO3)C1 [Compound B34]
Human Src
  IC50: 427 nM
Human Fyn
  IC50: < 1000 nM

## COc1cc2ncnc3c2cc1OCCCCCNCc1cc(Oc2ccc(C)nc2)c2c(c1N3)OCO2 [Compound B17]
Human Src
  IC50: > 10000 nM
Human Fyn
  IC50: 40.7 nM

## CN1CCCCCOc2cc3c(ncnc3cc2OCCCN2CCCC2)Nc2c(ccc3c2OCO3)C1 [Compound B21]
Human Src
  IC50: 575 nM
Human Fyn
  IC50: 0.0575 nM

## CN1CCCCCOc2cc3c(ncnc3cc2OCCCN2CCN(CCO)CC2)Nc2c(ccc3c2OCO3)C1 [Compound B13]
Human Src
  IC50: 295 nM
Human Fyn
  IC50: 3.63 nM

## CN1CCCCCOc2cc3c(ncnc3cc2OCCCNCCS(C)(=O)=O)Nc2c(ccc3c2OCO3)C1 [Compound B68]
Human Src
  IC50: 692 nM
Human Fyn
  IC50: < 1000 nM

## CN1CCCCCOc2cc3c(ncnc3cc2OCCCNC(=O)CCS(C)(=O)=O)Nc2c(ccc3c2OCO3)C1 [Compound B16]
Human Src
  IC50: 2290 nM
Human Fyn
  IC50: < 1000 nM

## CN1CCCCCOc2cc3c(ncnc3cc2OCCCNCCO)Nc2c(ccc3c2OCO3)C1 [Compound B69]
Human Src
  IC50: 479 nM
Human Fyn
  IC50: 6.17 nM

## COCCOCCOc1cc2ncnc3c2cc1OCCCN(C(=O)OC(C)(C)C)CCN(C)Cc1ccc2c(c1N3)OCO2 [Compound A28]
Human Src
  IC50: > 10000 nM
Human Fyn
  IC50: < 1000 nM

## COc1cc2c3c(ncnc3c1)Nc1c(ccc3c1OCO3)CNCCCCCO2 [Compound B47]
Human Fyn
  IC50: 120 nM
other
  melting point: 250 °C

## COc1cc2ncnc3c2cc1OCCCCCNCc1ccc2c(c1N3)OCO2 [Compound A9]
Human Src
  IC50: 2290 nM
Human Fyn
  IC50: < 1000 nM

## COc1cc2ncnc3c2cc1OCCCCCNCc1ccc2c(c1N3)OCO2 [Compound A10]
Human Src
  IC50: 2570 nM
Human Fyn
  C2: Fyn kinase pIC50: >6

## CN1CCCCCOc2cc3c(ncnc3cc2OC[C@H](O)CN2CCS(=O)(=O)CC2)Nc2c(ccc3c2OCO3)C1 [Compound B25]
Human Src
  IC50: 1410 nM
Human Fyn
  IC50: 5.25 nM

## CN(CCO)CCCOc1cc2ncnc3c2cc1OCCCNCCN(C)Cc1ccc2c(c1N3)OCO2 [Compound B5]
Human Src
  IC50: 501 nM
Human Fyn
  IC50: 20.9 nM

## CN1CCCCCOc2cc3c(ncnc3cc2O)Nc2c(ccc3c2OCO3)C1 [Compound A12]
Human Src
  IC50: > 10000 nM
Human Fyn
  IC50: 34.7 nM

## CN1CCCCCOc2cc3c(ncnc3cc2OCCCN2CCS(=O)(=O)CC2)Nc2c(ccc3c2OCO3)C1 [Compound B23]
Human Src
  IC50: 708 nM
Human Fyn
  IC50: < 1000 nM
